Values of other authors, collected in US20110293690A1, “Biodegradable Polymer Encapsulated Microsphere Particulate Film and Method of Making Thereof” (Tyco Healthcare Group LP, priority 2010, published 2011).
Structures can show the parent of a compound that is named as a salt. Where two headings read alike, the source gives them in different places.

Key:
[1] = in water, stated in words

| aqueous solubility ([1]; listed as free base form of bupivacaine) | pKa | aqueous solubility ([1]; hydrochloride) | SMILES |
| --- | --- | --- | --- |
| lower aqueous solubility | about 8.1 |  | CCCCN1CCCCC1C(=O)Nc1c(C)cccc1C (stereo not drawn) [Bupivacaine, bupivacaine] |
|  |  | soluble in water | CCCCN1CCCCC1C(=O)Nc1c(C)cccc1C (stereo not drawn) [salt form of bupivacaine, bupivacaine hydrochloride] |
